Reference: US9302999B2, “Substituted triazoles as herbicides” (E. I. DU PONT DE NEMOURS AND COMPANY, priority 2012, dated 2016)

Assays:
Assay type in all cases: in vivo
[1] = tested on: rice (Oryza sativa); test: Test B flooded paddy: rice; conditions: Flood; 250 g ai/ha; applied to paddy water at 2-leaf stage; visually evaluated after 13 to 15 days
How it was run: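 Response scored visually, 0–100 relative to controls, 13–15 days after the compound was applied into paddy water; plants were at the 2-leaf stage in pots kept flooded to 3 cm.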

[2] = tested on: foxtail, green (green foxtail, Setaria viridis); test: Test C pre-/postemergence: foxtail, green
How it was run: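 Preemergence on seeds in loam/sand, postemergence on 2–18 cm (1–4-leaf) plants in peat-based medium; compounds in non-phytotoxic solvent with surfactant. After 13–15 days in greenhouse, visual rating versus controls, 0 (no effect) to 100 (complete control).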

[3] = tested on: bromegrass, downy (downy bromegrass, Bromus tectorum); test: Test D pre-/postemergence: bromegrass, downy
How it was run: (§1)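 Visual control ratings (0–100) after 14–21 days, controlled environment. Preemergence on silt loam; postemergence on 2–18 cm plants.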

[4] = tested on: windgrass (Apera spica-venti); test: Test D pre-/postemergence: windgrass
How it was run: as §1

[5] = tested on: field violet (Viola arvensis); test: Test D pre-/postemergence: field violet; conditions: Postemergence
How it was run: as §1

[6] = tested on: barley, winter (winter barley, Hordeum vulgare); test: Test D pre-/postemergence: barley, winter
How it was run: as §1

[7] = tested on: ryegrass, Italian (Italian ryegrass, Lolium multiflorum); test: Test D pre-/postemergence: ryegrass, Italian
How it was run: as §1

[8] = tested on: blackgrass (Alopecurus myosuroides); test: Test D pre-/postemergence: blackgrass
How it was run: as §1

[9] = Postemergence, 31 g ai/ha, scale 0 to 100 (0 no effect, 100 complete control)
[10] = Postemergence, 62 g ai/ha, scale 0 to 100 (0 no effect, 100 complete control)
[11] = Postemergence, 125 g ai/ha, scale 0 to 100, 0 no effect, 100 complete control
[12] = Postemergence, 250 g ai/ha, scale 0 to 100 (0 no effect, 100 complete control)
[13] = Postemergence, 16 g ai/ha, scale 0 to 100
[14] = Preemergence, 16 g ai/ha, scale 0 to 100 (0 no effect, 100 complete control)
[15] = Preemergence, 31 g ai/ha, scale 0 to 100 (0 no effect, 100 complete control)
[16] = Preemergence, 62 g ai/ha, scale 0 to 100
[17] = Preemergence, 125 g ai/ha, scale 0 to 100
[18] = Preemergence, 250 g ai/ha, scale 0 to 100

## CCOc1nn(-c2ccc(F)cc2)nc1Cc1ccnc(C(F)F)c1 [Compound 195]
[1]
  Plant response rating, Rice (0 to 100 scale, 0 is no effect, 100 is complete control): 60
[2]; [9]
  Plant response rating, Foxtail, Green: 100
[2]; [10]
  Plant response rating, Foxtail, Green: 100
[2]; [11]
  Plant response rating, Foxtail, Green: 100
[2]; [12]
  Plant response rating, Foxtail, Green: 100
[2]; Preemergence, 31 g ai/ha, scale 0 (no effect) to 100 (complete control)
  Plant response rating, Foxtail, Green: 90
[2]; Preemergence, 62 g ai/ha, scale of 0 to 100, 0 is no effect, 100 is complete control
  Plant response rating, Foxtail, Green: 90
[2]; Preemergence, 125 g ai/ha, scale 0 to 100, 0 no effect, 100 complete control
  Plant response rating, Foxtail, Green: 90
[2]; Preemergence, 250 g ai/ha, scale 0 to 100, 0 no effect, 100 complete control
  Plant response rating, Foxtail, Green: 90
[3]; [9]
  Plant response rating: Bromegrass, Downy: 15
[3]; [10]
  Plant response rating: Bromegrass, Downy: 20
[3]; [11]
  Plant response rating: Bromegrass, Downy: 35
[3]; [12]
  Plant response rating: Bromegrass, Downy: 40
[3]; [13]
  Plant response rating, Bromegrass, Downy: 5
[3]; [14]
  Plant response rating, Bromegrass, Downy: 0
[3]; [15]
  Plant response rating, Bromegrass, Downy: 0
[3]; [16]
  Plant response rating, Bromegrass, Downy: 25
[3]; [17]
  Plant response rating, Bromegrass, Downy: 35
[3]; [18]
  Plant response rating, Bromegrass, Downy: 50
[4]; [10]
  Plant response rating: Windgrass: 30
[4]; [11]
  Plant response rating: Windgrass: 70
[4]; [12]
  Plant response rating: Windgrass: 80
[4]; [13]
  Plant response rating, Windgrass: 10
[4]; Postemergence, 31 g ai/ha, scale 0 to 100
  Plant response rating, Windgrass: 15
[4]; [14]
  Plant response rating, Windgrass: 25
[4]; [15]
  Plant response rating, Windgrass: 40
[4]; [16]
  Plant response rating, Windgrass: 75
[4]; [17]
  Plant response rating, Windgrass: 100
[4]; [18]
  Plant response rating, Windgrass: 100
[5]; 31 g ai/ha, scale 0 to 100 (0 no effect, 100 complete control)
  Plant response rating: Field Violet: 70
[5]; 62 g ai/ha, scale 0 to 100 (0 no effect, 100 complete control)
  Plant response rating: Field Violet: 75
[5]; 125 g ai/ha, scale 0 to 100, 0 no effect, 100 complete control
  Plant response rating: Field Violet: 85
[5]; 250 g ai/ha, scale 0 to 100 (0 no effect, 100 complete control)
  Plant response rating: Field Violet: 95
[5]; 16 g ai/ha, scale 0 to 100
  Plant response rating, Field Violet: 70
[6]; [9]
  Plant response rating: Barley, Winter: 10
[6]; [10]
  Plant response rating: Barley, Winter: 15
[6]; [11]
  Plant response rating: Barley, Winter: 30
[6]; [12]
  Plant response rating: Barley, Winter: 45
[6]; [13]
  Plant response rating, Barley, Winter: 0
[6]; [14]
  Plant response rating, Barley, Winter: 0
[6]; [15]
  Plant response rating, Barley, Winter: 0
[6]; [16]
  Plant response rating, Barley, Winter: 0
[6]; [17]
  Plant response rating, Barley, Winter: 0
[6]; [18]
  Plant response rating, Barley, Winter: 20
[7]; [9]
  Plant response rating: Ryegrass, Italian: 10
[7]; [10]
  Plant response rating: Ryegrass, Italian: 20
[7]; [11]
  Plant response rating: Ryegrass, Italian: 20
[7]; [12]
  Plant response rating: Ryegrass, Italian: 25
[7]; [13]
  Plant response rating, Ryegrass, Italian: 5
[7]; [14]
  Plant response rating, Ryegrass, Italian: 0
[7]; [15]
  Plant response rating, Ryegrass, Italian: 0
[7]; [16]
  Plant response rating, Ryegrass, Italian: 0
[7]; [17]
  Plant response rating, Ryegrass, Italian: 20
[7]; [18]
  Plant response rating, Ryegrass, Italian: 60
[8]; [9]
  Plant response rating: Blackgrass: 25
[8]; [10]
  Plant response rating: Blackgrass: 35
[8]; [11]
  Plant response rating: Blackgrass: 50
[8]; [12]
  Plant response rating: Blackgrass: 70
[8]; [13]
  Plant response rating, Blackgrass: 20
[8]; [14]
  Plant response rating, Blackgrass: 0
[8]; [15]
  Plant response rating, Blackgrass: 70
[8]; [16]
  Plant response rating, Blackgrass: 75
[8]; [17]
  Plant response rating, Blackgrass: 80
[8]; [18]
  Plant response rating, Blackgrass: 100
